# Experimental data: patent publication US20110281179A1, “NON-AQUEOUS ELECTROLYTIC SOLUTION, AND LITHIUM BATTERY COMPRISING SAME” (UBE INDUSTRIES, LTD., priority 2008, published 2011)
# Assay: pKa (acid dissociation constant)
# Type: physicochemical
# Source text: Here, the pKa value is also called an acid dissociation constant, and the pKa can be measured by an ordinary method. For example, the pKa can be determined in accordance with the method described in Experimental Chemistry Seminar 5 “Thermal Measurement and Equilibrium”, p. 460 (edited by the Chemical Society of Japan, published by Maruzen Company, Limited.).
row,SMILES,pKa
1,Oc1c(Cl)c(Cl)c(Cl)c(Cl)c1Cl [Pentachlorophenol],4.7
2,"Oc1c(F)c(F)cc(F)c1F [2,3,5,6-Tetrafluorophenol]",5.5
3,"Oc1ccc(F)c(F)c1F [2,3,4-Trifluorophenol]",6

# Second part, the compound after the results:
row,pKa,SMILES
1,8.4,"Oc1ccc(F)cc1F [2,4-Difluorophenol]"
2,9.9,Oc1ccc(F)cc1 [4-Fluorophenol]
